Earlier results, collected in patent publication US20080293724A1, “Methods Using Hydralazine Compounds and Isosorbide Dinitrate or Isosorbide Mononitrate” (NITROMED, INC., priority 2006, published 2008).
Counter-ions that a name gives are not always drawn.

Q: With `NNc1nncc2ccccc12` [Hydralazine hydrochloride, hydralazine hydrochloride] as the molecule, how does the solubility in alcohol (alcohol) read?
A: The solubility in alcohol was “slightly soluble”.

Q: And the solubility in ether (ether)?
A: The solubility in ether was “very slightly soluble”.

Q: What about the solubility in water of the same molecule?
A: The solubility in water was “soluble”.

Q: For `O=[N+]([O-])O[C@H]1CO[C@H]2[C@@H]1OC[C@H]2O[N+](=O)[O-]` [isosorbide dinitrate, 1,4,3,6-dianhydro-D-glucitol-2,5-dinitrate], which “solubility in organic solvents” value (organic solvents such as ethanol, ether and chloroform) is on record?
A: Its value is “freely soluble”.

Q: And the solubility in water?
A: Its solubility in water is “sparingly soluble”.
